The source of these data is patent publication US20250115607A1, “PYRIDINE DERIVATIVES” (Hoffmann-La Roche Inc., priority 2022, published 2025).

Holding throughout (type): biochemical
The target of one test is SIK3 (Homo sapiens (Human), UniProt Q9Y2K2). As to the kind of experiment: Phosphorylation assay SIK3 (RapidFire mass spectrometry). Conditions: 1.5 nM SIK3, CHK-peptide, ATP, 30 min pre-incubation, 45 min incubation; read-out: SIK3 RF IC50. As to the method:
(§1) In the presence of SIK2 (resp. SIK1 or SIK3) and ATP the CHK-peptide ([…] with C-terminal arginine amide modification) were phosphorylated at one of the four feasible serine's. Only one phosphorylation is observed under the assay conditions. 60 nl of each compound dilution series (12 point; dilution factor 3, generally 30 μM to 170 pM) in DMSO were transferred by acoustic dispensing to the assay plate and 30 minutes pre-incubated (ambient temperature) after the addition of 5 μl SIK1 (5 nM) resp. 5 μl SIK2 (0.5 nM) or 7 μl SIK3 (1.5 nM) in assay-buffer (12.5 mM HEPES (pH 7.0), 10 mM magnesium acetate, 0.005% BSA). 10 μM CHK-peptide solution and 5 μl of 100 μM ATP for SIK1 & SIK2 resp. 3 μl for SIK3 in assay-buffer were added and incubated ambient for 45 minutes. 40 μl of 0.125% formic acid in water were added to quench the reaction. RapidFire (RF) Mass Spectrometry was utilized for data generation as described below. The multiple charged species (3-5 charges) for the phosphorylated and non-phosphorylated form measured by MRM (Multiple Reaction Monitoring; API5000 or 6500+) or EIC (Extracted Ion Current; QToF) were summed up and the ratio calculated (sum phosphorylated species/sum all species) for data evaluation. Normalization was performed by Genedata software based on the non-inhibition control DMSO and the commercially available STK inhibitor @1 μM YKL-05-099 (CAS number 1936529-65-5). The results of the assay are expressed in half-maximal inhibitory concentrations (IC50s) and are summarized below in Table 1.
(§2) Samples were aspirated by vacuum for max. 600 ms and loaded to C4-cartridge (Agilent; #G9203A) for 3000 ms@1.5 ml/min with 0.1% formic acid in water. Afterwards samples were transferred to the API5000 (API6500+) or QToF mass spectrometer for 4000 ms@1.25 ml/min with 90% acetonitrile; 10% water; 0.007% TFA; 0.093 formic acid. The cartridge was reconditioned for additional 500 ms with 0.1% formic acid in water.
(§3) All MS analyses using the following MS-setup in MRM mode: Electrospray positive; Ion Spray Voltage: 4000V; Temperature: 550° C.; Collision Gas: 5; Curtain Gas: 15; Gas 1: 40; Gas 2: 42; EP: 10. DP=declustering potential; CE=collision energy; CXP=cell exit potential.
(§4) All MS analyses using the following MS-setup in Mode MS: Dual AJS Electrospray positive; VCap: 3000V; Drying & Sheath gas: 340° C.@81/min; Nebulizer: 60 psig; Nozzle Voltage: 2000V; Fragmentor: 130V; Skimmer: 35V; Oct1 RF Vpp: 700V; Ref masses on@5 spectra/s

A further test deals with SIK1 (Homo sapiens (Human), UniProt P57059). The experiment in a line: Phosphorylation assay SIK1 (RapidFire mass spectrometry). Conditions: 5 nM SIK1, CHK-peptide, ATP, 30 min pre-incubation, 45 min incubation; read-out: SIK1 RF IC50. As to the method:
as §1, §2, §3, §4

Another test deals with SIK2 (Homo sapiens (Human), UniProt Q9H0K1). The experiment in a line: Phosphorylation assay SIK2 (RapidFire mass spectrometry). Conditions: 0.5 nM SIK2, CHK-peptide, ATP, 30 min pre-incubation, 45 min incubation; read-out: SIK2 RF IC50. On the procedure: as §1, §2, §3, §4
Chain of SIK2 (Q9H0K1 whole entry): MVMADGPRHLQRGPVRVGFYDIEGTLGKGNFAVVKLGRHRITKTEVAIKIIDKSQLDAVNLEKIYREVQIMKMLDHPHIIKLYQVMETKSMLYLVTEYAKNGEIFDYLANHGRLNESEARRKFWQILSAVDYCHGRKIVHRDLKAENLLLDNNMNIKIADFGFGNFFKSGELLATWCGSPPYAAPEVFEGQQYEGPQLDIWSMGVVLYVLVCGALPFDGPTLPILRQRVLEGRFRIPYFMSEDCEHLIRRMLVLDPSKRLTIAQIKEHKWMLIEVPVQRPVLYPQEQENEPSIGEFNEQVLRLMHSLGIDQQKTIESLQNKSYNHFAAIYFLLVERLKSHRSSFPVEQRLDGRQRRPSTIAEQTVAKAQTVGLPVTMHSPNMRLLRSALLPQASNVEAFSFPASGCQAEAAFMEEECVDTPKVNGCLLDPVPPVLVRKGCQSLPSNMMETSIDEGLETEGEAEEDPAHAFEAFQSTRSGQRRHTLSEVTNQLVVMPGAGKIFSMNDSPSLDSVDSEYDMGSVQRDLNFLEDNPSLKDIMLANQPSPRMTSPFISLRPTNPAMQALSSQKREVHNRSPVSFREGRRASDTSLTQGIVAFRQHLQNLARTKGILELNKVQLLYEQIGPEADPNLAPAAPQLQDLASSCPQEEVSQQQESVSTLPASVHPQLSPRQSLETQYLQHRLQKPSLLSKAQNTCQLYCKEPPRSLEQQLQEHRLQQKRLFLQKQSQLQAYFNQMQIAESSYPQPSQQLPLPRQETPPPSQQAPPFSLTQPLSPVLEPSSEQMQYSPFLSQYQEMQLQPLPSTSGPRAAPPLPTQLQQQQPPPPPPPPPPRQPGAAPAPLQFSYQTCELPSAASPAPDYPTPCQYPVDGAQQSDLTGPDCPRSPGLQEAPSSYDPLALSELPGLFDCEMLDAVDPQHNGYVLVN

Chain of SIK1 (P57059 whole entry): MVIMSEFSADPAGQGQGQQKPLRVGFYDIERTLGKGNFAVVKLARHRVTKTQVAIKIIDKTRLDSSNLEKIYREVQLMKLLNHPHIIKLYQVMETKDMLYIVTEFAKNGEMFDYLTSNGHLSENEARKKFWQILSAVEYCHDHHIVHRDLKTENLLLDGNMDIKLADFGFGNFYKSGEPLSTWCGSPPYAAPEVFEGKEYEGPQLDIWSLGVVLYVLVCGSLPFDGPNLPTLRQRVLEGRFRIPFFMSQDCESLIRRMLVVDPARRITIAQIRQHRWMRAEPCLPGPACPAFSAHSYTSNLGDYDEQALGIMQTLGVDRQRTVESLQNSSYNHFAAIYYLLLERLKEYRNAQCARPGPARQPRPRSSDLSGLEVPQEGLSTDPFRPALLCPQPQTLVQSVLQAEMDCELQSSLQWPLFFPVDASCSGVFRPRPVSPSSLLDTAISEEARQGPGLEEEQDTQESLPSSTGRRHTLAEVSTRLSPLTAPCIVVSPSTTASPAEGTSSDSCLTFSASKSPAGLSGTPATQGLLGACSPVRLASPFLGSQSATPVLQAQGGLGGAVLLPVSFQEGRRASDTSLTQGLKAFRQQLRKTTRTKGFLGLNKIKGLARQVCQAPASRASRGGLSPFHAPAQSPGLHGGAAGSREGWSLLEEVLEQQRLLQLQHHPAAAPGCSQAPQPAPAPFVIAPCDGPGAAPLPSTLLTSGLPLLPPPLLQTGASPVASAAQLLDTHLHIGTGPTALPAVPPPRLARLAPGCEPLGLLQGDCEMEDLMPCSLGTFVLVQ
Chain of SIK3 (Q9Y2K2 whole entry): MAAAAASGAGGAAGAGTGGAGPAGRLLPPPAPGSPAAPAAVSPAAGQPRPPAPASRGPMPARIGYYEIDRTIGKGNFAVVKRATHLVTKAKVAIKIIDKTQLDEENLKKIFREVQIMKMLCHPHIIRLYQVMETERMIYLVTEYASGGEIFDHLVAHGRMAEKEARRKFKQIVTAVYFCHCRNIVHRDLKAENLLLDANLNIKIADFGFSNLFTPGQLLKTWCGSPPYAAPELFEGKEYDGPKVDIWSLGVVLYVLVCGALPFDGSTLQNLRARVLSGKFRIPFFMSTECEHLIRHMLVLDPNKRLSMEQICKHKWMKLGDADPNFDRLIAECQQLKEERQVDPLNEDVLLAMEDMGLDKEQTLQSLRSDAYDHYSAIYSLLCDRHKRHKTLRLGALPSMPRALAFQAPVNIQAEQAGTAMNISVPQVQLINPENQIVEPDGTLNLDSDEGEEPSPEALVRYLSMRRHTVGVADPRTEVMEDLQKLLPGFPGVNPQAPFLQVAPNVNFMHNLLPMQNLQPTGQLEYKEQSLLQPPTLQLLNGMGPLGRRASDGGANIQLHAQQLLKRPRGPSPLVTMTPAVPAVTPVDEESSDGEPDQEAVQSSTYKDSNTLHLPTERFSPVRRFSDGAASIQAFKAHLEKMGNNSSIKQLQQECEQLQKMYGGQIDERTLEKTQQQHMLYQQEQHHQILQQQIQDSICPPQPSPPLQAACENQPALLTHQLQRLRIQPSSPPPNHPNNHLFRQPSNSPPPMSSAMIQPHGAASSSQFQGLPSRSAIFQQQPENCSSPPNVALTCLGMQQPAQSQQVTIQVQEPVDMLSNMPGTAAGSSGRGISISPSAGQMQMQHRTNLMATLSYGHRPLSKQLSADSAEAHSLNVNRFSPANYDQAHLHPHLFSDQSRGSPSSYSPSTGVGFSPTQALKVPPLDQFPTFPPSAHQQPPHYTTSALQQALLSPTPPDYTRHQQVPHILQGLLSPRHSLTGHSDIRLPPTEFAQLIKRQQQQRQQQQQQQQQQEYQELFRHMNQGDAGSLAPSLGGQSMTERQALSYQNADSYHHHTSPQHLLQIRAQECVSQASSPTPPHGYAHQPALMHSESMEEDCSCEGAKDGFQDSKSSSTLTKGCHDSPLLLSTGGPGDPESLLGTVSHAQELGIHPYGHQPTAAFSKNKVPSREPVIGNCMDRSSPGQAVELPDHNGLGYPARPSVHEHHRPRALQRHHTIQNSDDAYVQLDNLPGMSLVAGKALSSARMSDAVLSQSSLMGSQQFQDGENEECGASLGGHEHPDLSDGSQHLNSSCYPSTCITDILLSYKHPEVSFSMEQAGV

On to `CC(=O)c1ccc(-n2cnc3cc(N4CCOc5cc(C)nnc54)ncc32)nc1-n1nc(C#N)cc1C` [Example 6, 1-[3-Acetyl-6-[6-(3-methyl-6,7-dihydropyridazino[4,3-b][1,4]oxazin-8-yl)imidazo[4,5-c]pyridin-3-yl]-2-pyridyl]-5-methyl-pyrazole-3-carbonitrile], for which the IC50 on SIK3 was 3.29 µM; at SIK1, 17.4 µM; on SIK2, 2.54 µM.
Turning to `Cc1ccc(Nc2cc3ncn(-c4ccc(C(C)O)c(-n5nc(C#N)cc5C)n4)c3cn2)cn1` (stereo not drawn) [Example 3, 1-[3-(1-Hydroxyethyl)-6-[6-[(6-methyl-3-pyridyl)amino]imidazo[4,5-c]pyridin-3-yl]-2-pyridyl]-5-methyl-pyrazole-3-carbonitrile], the half-inhibitory concentration (IC50) on SIK3 was determined as 0.022 µM; on SIK1 it was 0.078 µM; on SIK2, 0.022 µM.
On to `CC(=O)c1ccc(-n2cnc3cc(Nc4ccc(C)nn4)ncc32)nc1-n1nc(C#N)cc1C` [Example 1, 1-[3-Acetyl-6-[6-[(6-methylpyridazin-3-yl)amino]imidazo[4,5-c]pyridin-3-yl]-2-pyridyl]-5-methyl-pyrazole-3-carbonitrile], for which the half-maximal inhibitory concentration (IC50) at SIK3 amounted to 0.121 µM; at SIK1 it was 4.52 µM; at SIK2, 0.042 µM.
The corresponding values for `Cc1ccc(Nc2cc3ncn(-c4ccc(C(C)O)c(-n5nc(C(F)F)cc5C)n4)c3cn2)nn1` (stereo not drawn) [Example 7, 1-[2-[3-(difluoromethyl)-5-methyl-pyrazol-1-yl]-6-[6-[(6-methylpyridazin-3-yl)amino]imidazo[4,5-c]pyridin-3-yl]-3-pyridyl]ethanol] are 0.007 µM, 0.879 µM and 0.016 µM.
As for `Cc1ccc(Nc2cc3ncn(-c4ccc(C(C)O)c(-c5cn(CC(F)(F)F)nc5C)n4)c3cn2)nn1` (stereo not drawn) [Example 4, 1-[6-[6-[(6-Methylpyridazin-3-yl)amino]imidazo[4,5-c]pyridin-3-yl]-2-[3-methyl-1-(2,2,2-trifluoroethyl)pyrazol-4-yl]-3-pyridyl]ethanol], the figures for the IC50 on SIK3, at SIK1 and at SIK2 were 0.003 µM, 0.396 µM and 0.003 µM, respectively.
Consider `Cc1ccc(Nc2cc3ncn(-c4ccc(C(C)O)c(-n5nc(C#N)cc5C)n4)c3cn2)nn1` (stereo not drawn) [Example 2, 1-[3-(1-Hydroxyethyl)-6-[6-[(6-methylpyridazin-3-yl)amino]imidazo[4,5-c]pyridin-3-yl]-2-pyridyl]-5-methyl-pyrazole-3-carbonitrile], for which the figures for the 50% inhibitory concentration (IC50) at SIK3, on SIK1 and at SIK2 were 0.003 µM, 0.366 µM and 0.005 µM, respectively.

The IC50 is the concentration at which inhibition is half-maximal.
